Assay results reported in patent publication US20190292155A1, “THERAPEUTIC INHIBITORY COMPOUNDS” (LifeSci Pharmaceuticals, Inc., priority 2016, published 2019).
Where two headings read alike, the source gives them in different places.

Assays:
[1] = molecular target: T1, human complement factor D (Homo sapiens, UniProt P00746); assay: In vitro enzyme inhibition of human complement factor D (Z-Lys-SBzl/DTNB, A405); type: biochemical
T1 construct: purchased R&D Systems 1824-SE
Summary of the method: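 Buffer 50 mM Tris/HCl pH 7.5, 1 M NaCl, 0.5% final DMSO; compounds pre-incubated with enzyme 5 min at room temperature, then Z-Lys-SBzl with DTNB added (each diluted to 200 μM before addition).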

[2] = system: alternative pathway (AP) hemolytic activity; assay: AP hemolysis inhibition assay; type: cell-based; conditions: Normal Human Serum, chicken or rabbit erythrocytes
Experimental: The ability of the compounds disclosed herein to inhibit alternative pathway (AP) hemolytic activity was determined. […] In 100 μL reaction system, 1300 to […] final concentration of Normal Human Serum (CompTech) was incubated with compound for 15 min at 37° C. Then 2×10^6 cells/well of chicken or rabbit erythrocytes in assay buffer were added and incubated for an additional 60 min at 37° C. Positive control (100% lysis) consists of serum and RBC, and negative control (0% lysis) consists of assay buffer and RBC only. Samples were centrifuged at 2000 g for 5 min, and supernatants collected. […] Percentage lysis in each sample is calculated relative to positive control (100% lysis).

[3] = biochemical assay, substrate Z-Lys-SBzl, read-out: CFD IC50

T1 sequence (P00746 26-253): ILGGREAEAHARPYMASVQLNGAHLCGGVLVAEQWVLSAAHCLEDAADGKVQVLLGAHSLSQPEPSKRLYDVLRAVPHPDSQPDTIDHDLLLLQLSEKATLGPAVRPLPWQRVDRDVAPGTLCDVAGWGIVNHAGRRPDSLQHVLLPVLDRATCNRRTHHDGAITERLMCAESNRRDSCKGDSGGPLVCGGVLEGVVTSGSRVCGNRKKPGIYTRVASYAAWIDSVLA

| SMILES | IC50 [1, 3] [µM] | EC50 [2] [µM] | IC50 [1] [µM] |
| --- | --- | --- | --- |
| CC(C)N(CC(=O)Nc1cccc(Cl)n1)C(=O)Cn1nc(C(N)=O)c2ccccc21 [Example 12, 1-(2-((2-((6-chloropyridin-2-yl)amino)-2-oxoethyl)(isopropyl)amino)-2-oxoethyl)-1H-indazole-3-carboxamide] |  | 0.1 to 1 | 0.1 to 1 |
| NC(=O)c1nn(CC(=O)N(CC(=O)Nc2cccc(Cl)n2)C2CC2)c2ccccc12 [Example 16, 1-(2-((2-((6-chloropyridin-2-yl)amino)-2-oxoethyl)(cyclopropyl)amino)-2-oxoethyl)-1H-indazole-3-carboxamide] |  | 0.1 to 1 | 0.1 to 1 |
| NC(=O)n1nc(CC(=O)N(CC(=O)Nc2cccc(Cl)n2)C2CCC2)c2ccccc21 [Example 20, 3-(2-((2-((6-chloropyridin-2-yl)amino)-2-oxoethyl)(cyclobutyl)amino)-2-oxoethyl)-1H-indazole-1-carboxamide] | 0.1 to 1 | 0.1 to 1 |  |
| CC(=O)c1nn(CC(=O)N(CC(=O)NCc2cccc(Cl)c2F)C2CC2)c2ccccc12 [Example 47, 2-(3-acetyl-1H-indazol-1-yl)-N-(2-((3-chloro-2-fluorobenzyl)amino)-2-oxoethyl)-N-cyclopropylacetamide] | < 0.1 | 0.1 to 1 |  |
| CC(C)N(CC(=O)NCc1cccc(Cl)c1F)C(=O)Nc1cn(C(N)=O)c2ccccc12 [Example 50, 3-(3-(2-((3-chloro-2-fluorobenzyl)amino)-2-oxoethyl)-3-isopropylureido)-1H-indole-1-carboxamide] | 0.1 to 1 | 1 to 10 |  |
| NC(=O)c1nc(NC(=O)N(CC(=O)NCc2cccc(Cl)c2F)C2CC2)c2ccccn12 [Example 53, 1-(3-(2-((3-chloro-2-fluorobenzyl)amino)-2-oxoethyl)-3-cyclopropylureido)imidazo[1,5-a]pyridine-3-carboxamide] | 0.1 to 1 | 0.1 to 1 |  |
| CC(=O)c1nc(CC(=O)N(CC(=O)NCc2cccc(Cl)c2F)C2CC2)c2ccccn12 [Example 137, 2-(3-acetylimidazo[1,5-a]pyridin-1-yl)-N-(2-((3-chloro-2-fluorobenzyl)amino)-2-oxoethyl)-N-cyclopropylacetamide] | 1 to 10 |  |  |
| NC(=O)c1nc(CC(=O)N(CC(=O)NCc2cccc(Cl)c2F)C2CC2)c2ccccn12 [Example 138, 1-(2-((2-((3-chloro-2-fluorobenzyl)amino)-2-oxoethyl)(cyclopropyl)amino)-2-oxoethyl)imidazo[1,5-a]pyridine-3-carboxamide] | 0.1 to 1 |  |  |
| NC(=O)c1nc(NC(=O)N(CC(=O)NCc2cccc(Cl)c2F)C2CC2)n2ccccc12 [Example 140, 3-(3-(2-((3-chloro-2-fluorobenzyl)amino)-2-oxoethyl)-3-cyclopropylureido)imidazo[1,5-a]pyridine-1-carboxamide] | 0.1 to 1 |  |  |
| CC(=O)c1nc(NC(=O)N(CC(=O)NCc2cccc(Cl)c2F)C2CC2)c2ccccn12 [Example 141, 2-(3-(3-acetylimidazo[1,5-a]pyridin-1-yl)-1-cyclopropylureido)-N-(3-chloro-2-fluorobenzyl)acetamide] | 0.1 to 1 |  |  |

The next lines start with results.

| IC50 [1, 3] [µM] | SMILES | EC50 [2] [µM] | IC50 [1] [µM] |
| --- | --- | --- | --- |
| < 0.1 | NC(=O)n1nc(CC(=O)N(CC(=O)NCc2cccc(Cl)c2F)C2CC2)c2ccccc21 [Example 8, 3-(2-((2-((3-chloro-2-fluorobenzyl)amino)-2-oxoethyl)(cyclopropyl)amino)-2-oxoethyl)-1H-indazole-1-carboxamide] | 0.1 to 1 |  |
| < 0.1 | NC(=O)c1nn(CC(=O)N(CC(=O)NCc2cccc(Cl)c2F)C2CC2)c2cnccc12 [Example 40, 1-(2-((2-((3-chloro-2-fluorobenzyl)amino)-2-oxoethyl)(cyclopropyl)amino)-2-oxoethyl)-1H-pyrazolo[3,4-c]pyridine-3-carboxamide] | 0.1 to 1 |  |
| > 10 | NC(=O)c1nn(CC(=O)N(CC(=O)NCc2cccc(Cl)c2C2CC2)C2CC2)c2ccccc12 [Example 131, 1-(2-((2-((3-chloro-2-cyclopropylbenzyl)amino)-2-oxoethyl)(cyclopropyl)amino)-2-oxoethyl)-1H-indazole-3-carboxamide] |  |  |
| 0.1 to 1 | NC(=O)c1nn(CC(=O)N(CC(=O)NCc2cccc(F)c2F)C2CC2)c2ccccc12 [Example 132, 1-(2-(cyclopropyl(2-((2,3-difluorobenzyl)amino)-2-oxoethyl)amino)-2-oxoethyl)-1H-indazole-3-carboxamide] |  |  |
| 1 to 10 | N#Cc1cc(Cl)cc(CNC(=O)CN(C(=O)Cn2nc(C(N)=O)c3ccccc32)C2CC2)c1 [Example 133, 1-(2-((2-((3-chloro-5-cyanobenzyl)amino)-2-oxoethyl)(cyclopropyl)amino)-2-oxoethyl)-1H-indazole-3-carboxamide] |  |  |
| 1 to 10 | Cc1c(Cl)cccc1CNC(=O)CN(C(=O)Cn1nc(C(N)=O)c2ccccc21)C1CC1 [Example 134, 1-(2-((2-((3-chloro-2-methylbenzyl)amino)-2-oxoethyl)(cyclopropyl)amino)-2-oxoethyl)-1H-indazole-3-carboxamide] |  |  |
| 1 to 10 | NC(=O)c1nn(CC(=O)N(CC(=O)NCc2cccc(Cl)c2C(F)(F)F)C2CC2)c2ccccc12 [Example 135, 1-(2-((2-((3-chloro-2-(trifluoromethyl)benzyl)amino)-2-oxoethyl)(cyclopropyl)amino)-2-oxoethyl)-1H-indazole-3-carboxamide] |  |  |
| 1 to 10 | NC(=O)c1nn(CC(=O)N(CC(=O)NCc2cccc(C(F)(F)F)c2F)C2CC2)c2ccccc12 [Example 136, 1-(2-(cyclopropyl(2-((2-fluoro-3-(trifluoromethyl)benzyl)amino)-2-oxoethyl)amino)-2-oxoethyl)-1H-indazole-3-carboxamide] |  |  |
